biological target: CB1-receptor (UniProt P20272); test: In-vitro determination of affinity (binding) to CB1-receptors, radioligand [3H]-CP55940; parameters: IC50; Ki; species or system human or rat; conditions: Pharmacological Methods Part I
Experimental: I. In-Vitro Determination of Affinity to CB1/CB2-Receptors
The in-vitro determination of the affinity of the inventive substituted pyrazoline compounds to CB1/CB2-Rezeptors is carried out as described in the publication of Ruth A. Ross, Heather C. Brockie et al., “Agonist-inverse agonist characterisation at CB1 and CB2 cannabinoid receptors of L-759633, L759656 and AM630”, British Journal of Pharmacology, 126, 665-672, (1999), whereby the transfected human CB1 and CB2 receptors of Receptor Biology, Inc. are used. The radioligand used for both receptors is [^3H]-CP55940. The respective parts of the description is hereby incorporated by reference and forms part of the present disclosure.
Rat Cerebellum CB1 Binding
Binding affinity to CB1 receptor was evaluated according to a modification of the method described by Govaerts et al., Eur J Pharmac Sci 23, 233-243 (2004). The respective parts of the description is hereby incorporated by reference and forms part of the present disclosure.
Briefly, cerebellum from male wistar rats (250-300 g) were carefully dissected on ice and homogenates were prepared with Potter-Helveheim in a cold 50 mM Tris-HCl solution containing 5 mM MgCl2, 1 mM EDTA and 0.25 M sucrose, pH 7.4. The suspension was centrifuged at 1,000×g for 5 minutes. The supernatants were collected and centrifuged 50,000×g for 15 minutes. The resulting pellets were then resuspended in Tris-HCl buffer without sucrose, homogenised and incubated for 15 min at 37° C. in an orbital shaker bath and centrifuged again at 50,000×g for 15 min. Pellets were weighted, resuspended in Tris-HCl buffer without sucrose, homogenised with Ultraturrax at 13,500 rpm for 3×5 seconds and alicuoted in 0.9 ml volumes in Eppendorf tubes. Alicuotes were centrifuged at 20,800×g for 5 minutes, supernatants discarded and pellets were frozen at −80° C. until use. Total protein concentration was determined using the Bio-Rad Lowry method based kit. Competitive binding experiments were performed in presence of 1 nM [^3H]-CP 55,940 in siliconised glass tubes containing 100 μg protein/tube resuspended in 1 ml final volume of 50 mM Tris-HCl, 5 mM MgCl2, 1 mM EDTA, 0.5% (w/v) bovine serum albumin, pH 7.4. Compounds were present at various concentrations and the non specific binding was determined in the presence of 10 μM HU-210. After 1 hour incubation at 30° C., the suspension was rapidly filtered through 0.5% PEI pre-treated GF/B fiber filters on a 96-well harvester and washed 3 times with 3 ml ice-cold binding buffer without bovine serum albumin. Radioactivity on filters was measured with Wallac Winspectral 1414 counter by liquid scintillation in 6 ml Ecoscint H (National Diagnostics, U.K.). Assays were made in triplicates.
Binding data were analysed by non-linear regression with the software GraphPad Prism Version 3.03.
The binding of the pyrazoline compounds of general formulae I, Ia and Ib to CB1-receptors was determined according to the method described in the section Pharmacological Methods, Part I.

SMILES | IC50 | Ki
CCOc1ccc(C2CC(CNS(=O)(=O)c3cc(C)ccc3C)=NN2c2ccc(Cl)cc2Cl)cc1 (stereo not shown) [Example 103, N-[1-(2,4-Dichloro-phenyl)-5-(4-ethoxy-phenyl)-4,5-dihydro-1H-pyrazol-3-ylmethyl]-2,5-dimethyl-benzenesulfonamide] | 12.1 nM | 5.3 nM
CCOc1ccc(C2CC(CNS(=O)(=O)c3cc(C(F)(F)F)ccc3Cl)=NN2c2ccc(Cl)cc2Cl)cc1 (stereo not shown) [Example 101, 2-Chloro-N-[1-(2,4-dichloro-phenyl)-5-(4-ethoxy-phenyl)-4,5-dihydro-1H-pyrazol-3-ylmethyl]-5-trifluoromethyl-benzenesulfonamide] | 12.8 nM | 5.6 nM
CCOc1ccc(C2CC(CNS(=O)(=O)c3ccccc3Br)=NN2c2ccc(Cl)cc2Cl)cc1 (stereo not shown) [Example 249, 2-Bromo-N-[1-(2,4-dichloro-phenyl)-5-(4-ethoxy-phenyl)-4,5-dihydro-1H-pyrazol-3-ylmethyl]-benzenesulfonamide] | 5.6 nM | 2.4 nM
O=S(=O)(NCC1=NN(c2ccc(Cl)cc2Cl)[C@@H](c2ccc(Cl)cc2)C1)c1ccccc1 [Example 194, (R)-N-[5-(4-Chloro-phenyl)-1-(2,4-dichloro-phenyl)-4,5-dihydro-1H-pyrazol-3-ylmethyl]-benzenesulfonamide] | 88.9 nM | 38.3 nM
COc1ccc(C2CC(CNS(=O)(=O)c3cccc(OC)c3)=NN2c2ccc(Cl)cc2Cl)cc1 (stereo not shown) [Example 221, N-[1-(2,4-Dichloro-phenyl)-5-(4-methoxy-phenyl)-4,5-dihydro-1H-pyrazol-3-ylmethyl]-3-methoxy-benzenesulfonamide] | 52.7 nM | 23.5 nM
O=S(=O)(NCC1=NN(c2ccc(Cl)cc2Cl)C(c2ccc(Cl)cc2)C1)c1cc(Cl)ccc1Cl (stereo not shown) [Example 139, 2,5-Dichloro-N-[5-(4-chloro-phenyl)-1-(2,4-dichloro-phenyl)-4,5-dihydro-1H-pyrazol-3-ylmethyl]-benzenesulfonamide] | 16.5 nM | 7 nM
CCOc1ccc(C2CC(CNS(=O)(=O)c3cccc(F)c3)=NN2c2ccc(Cl)cc2Cl)cc1 (stereo not shown) [Example 261, N-[1-(2,4-Dichloro-phenyl)-5-(4-ethoxy-phenyl)-4,5-dihydro-1H-pyrazol-3-ylmethyl]-3-fluoro-benzenesulfonamide] | 9.8 nM | 9.8 nM
CCOc1ccc(C2CC(CNS(=O)(=O)c3cccc(Cl)c3Cl)=NN2c2ccc(Cl)cc2Cl)cc1 (stereo not shown) [Example 248, 2,3-Dichloro-N-[1-(2,4-dichloro-phenyl)-5-(4-ethoxy-phenyl)-4,5-dihydro-1H-pyrazol-3-ylmethyl]-benzenesulfonamide] | 17.9 nM | 7.6 nM
O=[N+]([O-])c1cccc(S(=O)(=O)NCC2=NN(c3ccc(Cl)cc3Cl)C(c3ccc(Cl)cc3)C2)c1 (stereo not shown) [Example 144, N-[5-(4-Chloro-phenyl)-1-(2,4-dichloro-phenyl)-4,5-dihydro-1H-pyrazol-3-ylmethyl]-3-nitro-benzenesulfonamide] | 55 nM | 23.2 nM
COc1ccc(C2CC(CNS(=O)(=O)c3cc(C)ccc3C)=NN2c2ccc(Cl)cc2Cl)cc1 (stereo not shown) [Example 97, N-[1-(2,4-Dichloro-phenyl)-5-(4-methoxy-phenyl)-4,5-dihydro-1H-pyrazol-3-ylmethyl]-2,5-dimethyl-benzenesulfonamide] | 43.9 nM | 18.4 nM
Cc1ccc(F)cc1S(=O)(=O)NCC1=NN(c2ccc(Cl)cc2Cl)[C@@H](c2ccc(Cl)cc2)[C@H]1C (racemic) [Example 73, cis-(4RS,5RS)-N-[5-(4-Chloro-phenyl)-1-(2,4-dichloro-phenyl)-4-methyl-4,5-dihydro-1H-pyrazol-3-ylmethyl]-5-fluoro-2-methyl-benzenesulfonamide] | 11.8 nM | 5.3 nM
O=S(=O)(NCC1=NN(c2ccc(Cl)cc2Cl)[C@@H](c2ccc(Cl)cc2)C1)c1cc(Cl)ccc1F [Example 106, (R)-5-Chloro-N-[5-(4-chloro-phenyl)-1-(2,4-dichloro-phenyl)-4,5-dihydro-1H-pyrazol-3-ylmethyl]-2-fluoro-benzenesulfonamide] | 28.5 nM | 11.9 nM
COc1ccc(C2CC(CNS(=O)(=O)c3ccccc3Cl)=NN2c2ccc(Cl)cc2Cl)cc1 (stereo not shown) [Example 217, 2-Chloro-N-[1-(2,4-dichloro-phenyl)-5-(4-methoxy-phenyl)-4,5-dihydro-1H-pyrazol-3-ylmethyl]-benzenesulfonamide] | 69 nM | 30.8 nM
CCOc1ccc(C2CC(CNS(=O)(=O)c3ccccc3F)=NN2c2ccc(Cl)cc2Cl)cc1 (stereo not shown) [Example 98, N-[1-(2,4-Dichloro-phenyl)-5-(4-ethoxy-phenyl)-4,5-dihydro-1H-pyrazol-3-ylmethyl]-2-fluoro-benzenesulfonafonamide] | 47.1 nM | 19.8 nM
COc1ccc(C2CC(CNS(=O)(=O)c3cccc(Cl)c3)=NN2c2ccc(Cl)cc2Cl)cc1 (stereo not shown) [Example 225, 3-Chloro-N-[1-(2,4-dichloro-phenyl)-5-(4-methoxy-phenyl)-4,5-dihydro-1H-pyrazol-3-ylmethyl]-benzenesulfonamide] | 90.1 nM | 39.7 nM
CCOc1ccc(C2CC(CNS(=O)(=O)c3cc(F)ccc3F)=NN2c2ccc(Cl)cc2Cl)cc1 (stereo not shown) [Example 99, N-[1-(2,4-Dichloro-phenyl)-5-(4-ethoxy-phenyl)-4,5-dihydro-1H-pyrazol-3-ylmethyl]-2,5-difluoro-benzenesulfonamide] | 42.6 nM | 17.9 nM
Cc1ccc(C)c(S(=O)(=O)NCC2=NN(c3ccc(Cl)cc3Cl)[C@@H](c3ccc(Cl)cc3)[C@H]2C)c1 (racemic) [Example 83, cis-(4RS,5RS)-N-[5-(4-Chloro-phenyl)-1-(2,4-dichloro-phenyl)-4-methyl-4,5-dihydro-1H-pyrazol-3-ylmethyl]-2,5-dimethyl-benzenesulfonamide] | 50.5 nM | 21.4 nM
CCOc1ccc(C2CC(CNS(=O)(=O)c3cccc(C#N)c3)=NN2c2ccc(Cl)cc2Cl)cc1 (stereo not shown) [Example 271, 3-Cyano-N-[1-(2,4-dichloro-phenyl)-5-(4-ethoxy-phenyl)-4,5-dihydro-1H-pyrazol-3-ylmethyl]-benzenesulfonamide] | 10.2 nM | 4.4 nM
CCOc1ccc(C2CC(CNS(=O)(=O)c3cc(Cl)ccc3F)=NN2c2ccc(Cl)cc2Cl)cc1 (stereo not shown) [Example 100, 5-Chloro-N-[1-(2,4-dichloro-phenyl)-5-(4-ethoxy-phenyl)-4,5-dihydro-1H-pyrazol-3-ylmethyl]-2-fluoro-benzenesulfonamide] | 30.8 nM | 12.8 nM
CCOc1ccc(C2CC(CNS(=O)(=O)c3cc(F)ccc3C)=NN2c2ccc(Cl)cc2Cl)cc1 (stereo not shown) [Example 102, N-[1-(2,4-Dichloro-phenyl)-5-(4-ethoxy-phenyl)-4,5-dihydro-1H-pyrazol-3-ylmethyl]-5-fluoro-2-methyl-benzenesulfonamide] | 7.2 nM | 3 nM
Cc1cc(S(=O)(=O)NCC2=NN(c3ccc(Cl)cc3Cl)[C@@H](c3ccc(Cl)cc3)C2)c(C)cc1Cl [Example 67, (R)-4-Chloro-N-[5-(4-chloro-phenyl)-1-(2,4-dichloro-phenyl)-4,5-dihydro-1H-pyrazol-3-ylmethyl]-2,5-dimethyl-benzenesulfonamide] | 91 nM | 40.6 nM
Cc1ccc(C)c(S(=O)(=O)NCC2=NN(c3ccc(Cl)cc3Cl)[C@@H](c3ccc(Cl)cc3)C2)c1 [Example 69, (R)-N-[5-(4-Chloro-phenyl)-1-(2,4-dichloro-phenyl)-4,5-dihydro-1H-pyrazol-3-ylmethyl]-2,5-dimethyl-benzenesulfonamide] | 36.7 nM | 16.2 nM
O=S(=O)(NCC1=NN(c2ccc(Cl)cc2Cl)C(c2ccc(Cl)cc2)C1)c1cc(C(F)(F)F)ccc1Cl (stereo not shown) [Example 81, 2-Chloro-N-[5-(4-chloro-phenyl)-1-(2,4-dichloro-phenyl)-4,5-dihydro-1H-pyrazol-3-ylmethyl]-5-trifluoromethyl-benzenesulfonamide] | 15.2 nM | 6.9 nM
